A short description of data set [1]: Pharmacokinetics and tissue distribution study of HCQ in SD rats after single-dose IV/IT Free HCQ or IT TLC19 (Study No. PK20021). Conditions: for concentration at 24 h / AUC(0-t) / Cmax: Sprague-Dawley, rat, in vivo; for concentration at 24 h: 0.59 mg/animal; for AUC(0-t) / Cmax: 0.59 mg; for Cmax: Cmax of HCQ; for Cmax / Tmax of HCQ / AUC0-72 of HCQ: Free HCQ, 0.590 mg/animal; for Tmax of HCQ: median; for mean HCQ concentration in lung, starting value of decline: start of the first 24 hours post-dose.

Data set [2] concerns SARS-CoV-infected human airway epithelial (HAE) cells. To be noted: read-out: in vitro antiviral EC50; cited from earlier work.

Each structure is given as a SMILES string.

What is called AUC(0-t) is the area under the concentration-time curve up to a stated or last time point. By Cmax is commonly meant the maximum level reached in the sampled fluid or tissue. As a reminder, the EC50 is the concentration giving half of the maximal effect.

Turning to `CCN(CCO)CCCC(C)Nc1ccnc2cc(Cl)ccc12` (stereo not drawn) [Free HCQ, hydroxychloroquine], the concentration at 24 h in data set [1] stood at 2160 ng/g; in data set [1] (iv), 3770 ng/g. Also, the AUC(0-t) amounted to 2260 ng·h/mL in data set [1] (inhaled or intranasal) and 2330 ng·h/mL in data set [1] (iv). In addition, the peak concentration (Cmax) in data set [1] (inhaled or intranasal, rat blood, IT administration) was 477 ng/mL; in data set [1] (inhaled or intranasal, rat heart, IT administration) it was 3800 ng/g; in data set [1] (inhaled or intranasal, rat lung, IT administration), 47800 ng/g; in data set [1] (iv, rat blood, IV injection), 433 ng/mL; in data set [1] (iv, rat heart, IV injection) it was 4500 ng/g; in data set [1] (iv, rat lung, IV injection) it was 9400 ng/g. In addition, the “overall systemic exposures (Cmax and AUC), IV group compared with IT group” value in data set [1] (rat blood, Free HCQ 0.590 mg/animal) is “similar”. Further, the “Tmax of HCQ” value in data set [1] (rat blood, IT administration) came out at 15 min; in data set [1] (rat blood, IV injection), 15 min; in data set [1] (rat heart, IT administration) it was 15 min; in data set [1] (rat heart, IV injection), 15 min; in data set [1] (rat lung, IT administration), 15 min; in data set [1] (rat lung, IV injection) it was 15 min. Besides, the “AUC0-72 of HCQ” value in data set [1] (rat heart, IT administration) is 64.2 µg·h/g; in data set [1] (rat heart, IV injection) it was 67.2 µg·h/g; in data set [1] (rat lung, IT administration), 329 µg·h/g; in data set [1] (rat lung, IV injection), 252 µg·h/g. In addition, the “mean HCQ concentration in lung, starting value of decline” value in data set [1] (rat lung, Free HCQ IT group) is 47.8 µg/g; in data set [1] (rat lung, Free HCQ IV group) it was 9.4 µg/g.

For the compound `N#C[C@@]1(c2ccc3c(N)ncnn23)O[C@H](CO)[C@@H](O)[C@H]1O` [GS-441524, (2R,3R,4S,5R)-2-(4-aminopyrrolo[2,1-f][1,2,4]triazin-7-yl)-3,4-dihydroxy-5-(hydroxymethyl) oxolane-2-carbonitrile], in data set [2], the EC50 was 180 nM.

The values are drawn from patent publication US12629387B2, “Composition of antiviral agent for use in prophylactic or post-exposure treatment of infectious or respiratory diseases” (InspirMed Corp., priority 2020, dated 2026).
